Five compounds from patent US20250243233A1, “BIOBASED SURFACTANTS” (ECOLE POLYTECHNIQUE FEDERALE DE LAUSANNE (EPFL), priority 2022, published 2025) can be followed below.

What all share (type): physicochemical
The nature of series [1]: Interfacial tension measurements, water/oil pendant drop test (CMC from interfacial tension-concentration graph). The procedure: To test the amphiphilic properties of each molecule, we measured the water/oil interfacial tension using pendant drop test. In a typical test, we inject the organic solution with surfactants slowly into the water phase with a bent needle with 1 mm diameter. The interfacial tension is calculated by the force balance with the buoyancy force. The critical micelle concentration (CMC) can be obtained by checking the critical point of interfacial tension-concentration graph. […] The CMC of MAX10 and MAX8 are around 2.5 mg/mL.

A short description of series [2]: Emulsion stability measurements (water/cyclohexane emulsions, bright-field microscope). The settings on record: water/oil emulsion (67% water and 33% cyclohexane) containing 1% surfactant, FIG. 2. As for the experimental part: The emulsions were prepared by mixing 1 ml of water (with 1 mg/ml of Acian blue dye) and 2 ml cyclohexane containing 3,5-O-dodecylidene-xylose or 2-((dodecyloxy)methyl) tetrahydrofuran-3,4-diol) at a concentration of 0.1% and then mixed by vortex for 30 s.
Emulsions were characterized using a bright-field microscope (Leitz Ergolux) during the storage after preparation. […] Besides, a water/oil emulsion (67% water and 33% cyclohexane) containing 1% 3,5-O-dodecylidene-xylose was kept for about 1 year to observe its possible destablization.

Series [3] in a line: Accelerated aqueous decomposition test (boiling in water, HPLC). The settings on record: FIG. 16. As for the experimental part: HPLC analyses for the accelerated aqueous decomposition of MAXn were performed using a HPX-87H Column (300 mm×7.8 mm; column temperature=60° C.) using pH 2 water as eluent (flow rate=0.6 ml·min^−1, Vinj=20 μL) with 1260 Refractive Index Detector (RID) (G1362A)
To gain insight into the degradation products of 1,2-O-dodecylidene-xylose (MAX12) in water, an accelerating aging test was performed by boiling it in water. Samples were taken at various time points and analyzed by HPLC (pH2 aqueous-phase chromatography, HPX-87H Column (300 mm×7.8 mm; 125-0140), 1260 Refractive Index Detector (RID) (G1362A), flow rate=0.6 ml·min^−1, Vinj=20 μL, column temperature=60° C.). […] And to our knowledge, fatty aldehydes can be oxidized into fatty acids catalyzed by the aldehyde dehydrogenase enzyme. Xylose and fatty acids are readily biodegradable.

Series [4] in a line: quick emulsion test in ethyl acetate and water. The settings on record: non-miscible system of ethyl acetate and water, mixture neutralized until pH 7, FIG. 1a. The source says: The mixture was neutralized until pH 7, and dissolved in a non-miscible system of ethyl acetate and water to do a quick emulsion test.
[5] abbreviates: water/oil interfacial tension, FIG. 7.

With 3,5-O-decylidene-xylose [MAX10], the “critical micelle concentration (CMC)” value in series [1] (setting [5]) is “around 2.5 mg/mL”.

For the compound 3,5-O-dodecylidene-xylose [MAX12], the “state of emulsion after about 1 year storage” value in series [2] is on record as “most of the volume maintained the form of emulsion”. Further, the “critical micelle concentration (CMC)” value in series [1] (setting [5]) turned out to be 0.35 mg/mL. Also, in series [3], the “time to cleavage into xylose and fatty aldehyde” value is 2 days.

With 3,5-O-octylidene-xylose [MAX8], the “critical micelle concentration (CMC)” value in series [1] (setting [5]) was “around 2.5 mg/mL”.

Take `CCCCCCCCO` [1-octanol]: the “phase separation / formation of emulsion” value in series [4] is “phase separated”.

On to `CCCCCCCCCCCCOCC1OCC(O)C1O` (centres unmarked) [2-((dodecyloxy)methyl)tetrahydrofuran-3,4-diol], for which the “interfacial tension plateau value” in series [1] (cyclohexane/water) is recorded as “about 1.0 mN/m”. Besides, the “critical micelle concentration (CMC)” value in series [1] (cyclohexane/water, FIG. 8) is “around 0.5 g/L”.
